Measurements reported in patent US11970479B2, “3-(1H-pyrazol-4-yl)pyridine allosteric modulators of the M4 muscarinic acetylcholine receptor” (Merck Sharp & Dohme LLC, priority 2018, dated 2024).
pEC50: −log10 of the molar value.

Molecular target: T1, human M4 muscarinic acetylcholine receptor (Homo sapiens, UniProt P08173)
T1 construct: expressed in transfected cells
T1 sequence (P08173 1-479): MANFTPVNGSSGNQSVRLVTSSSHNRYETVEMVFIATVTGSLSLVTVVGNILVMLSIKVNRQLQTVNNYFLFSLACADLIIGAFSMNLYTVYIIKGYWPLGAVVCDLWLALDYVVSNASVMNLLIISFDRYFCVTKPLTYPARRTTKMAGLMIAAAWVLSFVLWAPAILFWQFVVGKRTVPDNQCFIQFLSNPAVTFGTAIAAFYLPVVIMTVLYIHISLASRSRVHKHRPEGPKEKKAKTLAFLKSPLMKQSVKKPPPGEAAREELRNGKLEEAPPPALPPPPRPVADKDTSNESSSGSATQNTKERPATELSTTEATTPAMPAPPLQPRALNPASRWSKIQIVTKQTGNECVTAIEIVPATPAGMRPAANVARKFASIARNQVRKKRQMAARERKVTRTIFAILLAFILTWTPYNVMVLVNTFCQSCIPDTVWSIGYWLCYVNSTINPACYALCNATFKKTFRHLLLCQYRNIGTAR
Experiment: human FLIPR-based M4 PAM assay (CHO-K1 cells with human M4 receptor and Gαqi5, calcium dye fluorescence, EC20 acetylcholine)
Assay type: cell-based
Conditions: inflection point (IP) of the dose response curve, human M4 receptor/Gαqi5, acetylcholine at 20% of maximum response, read-out: M4PAM Hu IP
Procedure: (§1) In a typical experiment the M4 muscarinic acetylcholine receptor modulating activity of the compounds of the present invention was determined in accordance with the following experimental method. CHO-K1 cells stably transfected with human M4 receptor and chimeric G-protein Gαqi5 (Coward P, et al., Analytical Biochemistry, 270:242-248 (1999)) are thawed from liquid N2 storage, resuspended in growth medium, plated in black, clear bottom 384 well plates, and incubated 16-20 hours at 37° C., 5% CO2. On the day of assay, growth medium is removed, the cells are washed 2 times with wash buffer, and cells are incubated in dye loading buffer at 37° C., 5% CO2 for ˜1 hour. Following dye loading the cell plates are placed in a FLIPR Tetra instrument and while monitoring dye fluorescence (excitation […]), 10 uL of test substance at increasing concentrations is added, and fluorescence values are recorded for 4 min. Next, 10 uL of acetylcholine is added (final concentration calculated so as to achieve 20% of the maximum acetycholine response), and the fluorescence reading is continued for 3.5 min. In some cases, a third addition of acetylcholine (final concentration calculated to achieve 70% of the maximal acetylcholine response) is performed. The resulting dose response curves are fit to a 4 parameter logistic equation and the final result is determined as the inflection point (IP) of the curve
as §1, with “CHO-K1” for “In a typical experiment the M4 muscarinic acetylcholine receptor modulating activity of the compounds of the present invention was determined in accordance with the following experimental method. CHO-K1”, “Gαqi5” for “Gαqi5 (Coward P, et al., Analytical Biochemistry, 270:242-248 (1999))”, “performed.” for “performed. The resulting dose response curves are fit to a 4 parameter logistic equation and the final result is determined as the inflection point (IP) of the curve”

| pEC50 | Compound |
| --- | --- |
| 7.70 | Cc1ccc(-c2cnn(CC34CCC(CC3)CC4)c2)c(-c2ccc3cccnc3c2)n1 [Example 14, 7-{3-[1-(bicyclo[2.2.2]oct-1-ylmethyl)-1H-pyrazol-4-yl]-6-methylpyridin-2-yl}quinoline] |
| 7.85 | COc1cc2ccc(-c3nc(C)ccc3-c3cnn(CC45CCC(CC4)CC5)c3)cc2nn1 [Example 15, 7-{3-[1-(bicyclo[2.2.2]oct-1-ylmethyl)-1H-pyrazol-4-yl]-6-methylpyridin-2-yl}-3-methoxycinnoline] |
| 6.91 | Cc1ccc(-c2cnn(CC3CCC(F)(F)CC3)c2)c(-c2ccc3cccnc3c2)n1 [Example 16, 7-(3-{1-[(4,4-difluorocyclohexyl)methyl]-1H-pyrazol-4-yl}-6-methylpyridin-2-yl)quinoline] |
| 7.25 | COc1cc2ccc(-c3nc(C)ccc3-c3cnn(CC4CCC(F)(F)CC4)c3)cc2nn1 [Example 17, 7-(3-{1-[(4,4-difluorocyclohexyl)methyl]-1H-pyrazol-4-yl}-6-methylpyridin-2-yl)-3-methoxycinnoline] |
| 7.06 | Cc1ccc(-c2cnn(CC3CCC(F)CC3)c2)c(-c2ccc3cccnc3c2)n1 (centres unmarked) [Example 18, 7-(3-{1-[(4-fluorocyclohexyl)methyl]-1H-pyrazol-4-yl}-6-methylpyridin-2-yl)quinoline] |
| 7.37 | COc1cc2ccc(-c3nc(C)ccc3-c3cnn(CC4CCC(F)CC4)c3)cc2nn1 (centres unmarked) [Example 19, 7-(3-{1-[(4-fluorocyclohexyl)methyl]-1H-pyrazol-4-yl}-6-methylpyridin-2-yl)-3-methoxycinnoline] |
| 7.04 | Cc1ccc(-c2cnn(Cc3ccccc3F)c2)c(-c2ccc3cccnc3c2)n1 [Example 20, 7-{3-[1-(2-fluorobenzyl)-1H-pyrazol-4-yl]-6-methylpyridin-2-yl}quinoline] |
| 7.21 | COc1cc2ccc(-c3nc(C)ccc3-c3cnn(Cc4ccccc4F)c3)cc2nn1 [Example 21, 7-{3-[1-(2-fluorobenzyl)-1H-pyrazol-4-yl]-6-methylpyridin-2-yl}-3-methoxycinnoline] |
| 7.80 | COc1cc2ccc(-c3nc(C)ccc3-c3cnn(CC4(C)CCC(F)(F)CC4)c3)cc2nn1 [Example 22, 7-(3-{1-[(4,4-difluoro-1-methylcyclohexyl)methyl]-1H-pyrazol-4-yl}-6-methylpyridin-2-yl)-3-methoxycinnoline] |
| 6.95 | COc1cc2ccc(-c3nc(C)ccc3-c3cnn(CC4(C)CCCO4)c3)cc2nn1 (centres unmarked) [Example 23, 3-methoxy-7-(6-methyl-3-{1-[(2-methyltetrahydrofuran-2-yl)methyl]-1H-pyrazol-4-yl}pyridin-2-yl)cinnoline] |
| 6.82 | COc1cc2ccc(-c3nc(C)ccc3-c3cnn(CC4(C(F)(F)F)CCC4)c3)cc2nn1 [Example 24, 3-methoxy-7-[6-methyl-3-(1-{[1-(trifluoromethyl)cyclobutyl]methyl}-1H-pyrazol-4-yl)pyridin-2-yl]cinnoline] |
| 7.34 | COc1cc2ccc(-c3nc(C)ccc3-c3cnn(CC4(C)CCC4)c3)cc2nn1 [Example 25, 3-methoxy-7-(6-methyl-3-{1-[(1-methylcyclobutyl)methyl]-1H-pyrazol-4-yl}pyridin-2-yl)cinnoline] |
| 7.15 | COc1cc2ccc(-c3nc(C)ccc3-c3cnn(CC4(C)CC4)c3)cc2nn1 [Example 26, 3-methoxy-7-(6-methyl-3-{1-[(1-methylcyclopropyl)methyl]-1H-pyrazol-4-yl}pyridin-2-yl)cinnoline] |
| 7.48 | N#Cc1ccc(-c2cnn(CC3(C(F)F)CC3)c2)c(-c2ccc3cccnc3c2)n1 [Example 27, 5-(1-{[1-(difluoromethyl)cyclopropyl]methyl}-1H-pyrazol-4-yl)-6-quinolin-7-ylpyridine-2-carbonitrile] |
| 7.36 | COc1cc2ccc(-c3nc(C#N)ccc3-c3cnn(CC4(C(F)F)CC4)c3)cc2nn1 [Example 28, 5-(1-{[1-(difluoromethyl)cyclopropyl]methyl}-1H-pyrazol-4-yl)-6-(3-methoxycinnolin-7-yl)pyridine-2-carbonitrile] |
| 7.14 | N#Cc1ccc(-c2cnn(CC3CC34CC4)c2)c(-c2ccc3cccnc3c2)n1 (centres unmarked) [Example 29, 6-quinolin-7-yl-5-[1-(spiro [2.2]pent-1-ylmethyl)-1H-pyrazol-4-yl]pyridine-2-carbonitrile] |
| 6.84 | COc1cc2ccc(-c3nc(Cl)c(C)cc3-c3cnn(CCC(C)(C)OC)c3)cc2nn1 [Example 30, 7-{6-chloro-3-[1-(3-methoxy-3-methylbutyl)-1H-pyrazol-4-yl]-5-methylpyridin-2-yl}-3-methoxycinnoline] |
| 7.12 | COc1cc2ccc(-c3nc(Cl)c(C)cc3-c3cnn(CC(C)(C)OC)c3)cc2nn1 [Example 31, 7-{6-chloro-3-[1-(2-methoxy-2-methylpropyl)-1H-pyrazol-4-yl]-5-methylpyridin-2-yl}-3-methoxycinnoline] |
| 6.95 | COc1cc2ccc(-c3nc(C#N)c(C)cc3-c3cnn(CCC(C)(C)OC)c3)cc2nn1 [Example 32, 6-(3-methoxycinnolin-7-yl)-5-[1-(3-methoxy-3-methylbutyl)-1H-pyrazol-4-yl]-3-methylpyridine-2-carbonitrile] |
| 7.08 | COc1cc2ccc(-c3nc(C#N)c(C)cc3-c3cnn(CC(C)(C)OC)c3)cc2nn1 [Example 33, 6-(3-methoxycinnolin-7-yl)-5-[1-(2-methoxy-2-methylpropyl)-1H-pyrazol-4-yl]-3-methylpyridine-2-carbonitrile] |
| 6.85 | COc1cc2ccc(-c3nc(C)c(C)cc3-c3cnn(CCC(C)(C)OC)c3)cc2nn1 [Example 34, 3-methoxy-7-{3-[1-(3-methoxy-3-methylbutyl)-1H-pyrazol-4-yl]-5,6-dimethylpyridin-2-yl}cinnoline] |
| 6.73 | COc1cc2ccc(-c3nc(C)c(C)cc3-c3cnn(CC(C)(C)OC)c3)cc2nn1 [Example 35, 3-methoxy-7-{3-[1-(2-methoxy-2-methylpropyl)-1H-pyrazol-4-yl]-5,6-dimethylpyridin-2-yl}cinnoline] |
| 7.85 | COc1cc2ccc(-c3nc(C)ccc3-c3cnn(CCC(C)(C)F)c3F)cc2nn1 [Example 36, 7-{3-[5-fluoro-1-(3-fluoro-3-methylbutyl)-1H-pyrazol-4-yl]-6-methylpyridin-2-yl}-3-methoxycinnoline] |
| 7.60 | CC(C)(C)Cn1cc(-c2ccc(C#N)nc2-c2ccc3cccnc3c2)cn1 [Example 37, 5-[1-(2,2-dimethylpropyl)-1H-pyrazol-4-yl]-6-quinolin-7-ylpyridine-2-carbonitrile] |
| 7.39 | COc1cc2ccc(-c3nc(C#N)ccc3-c3cnn(CC(C)(C)C)c3)cc2nn1 [Example 38, 5-[1-(2,2-dimethylpropyl)-1H-pyrazol-4-yl]-6-(3-methoxycinnolin-7-yl)pyridine-2-carbonitrile] |
| 7.04 | Cc1ccc2ccc(-c3nc(C#N)ccc3-c3cnn(CC(C)(C)C)c3)cc2n1 [Example 39, 5-[1-(2,2-dimethylpropyl)-1H-pyrazol-4-yl]-6-(2-methylquinolin-7-yl)pyridine-2-carbonitrile] |
| 6.68 | CC(C)(C)Cn1cc(-c2ccc(C#N)nc2-c2cnc3cccnc3c2)cn1 [Example 40, 5-[1-(2,2-dimethylpropyl)-1H-pyrazol-4-yl]-6-(1,5-naphthyridin-3-yl)pyridine-2-carbonitrile] |
| 7.41 | CC(C)(C)Cn1cc(-c2ccc(C#N)nc2-c2ccc3cc(F)cnc3c2)cn1 [Example 41, 5-[1-(2,2-dimethylpropyl)-1H-pyrazol-4-yl]-6-(3-fluoroquinolin-7-yl)pyridine-2-carbonitrile] |
| 7.33 | CC(C)(C)Cn1cc(-c2ccc(C#N)nc2-c2ccc3cc(Cl)nnc3c2)cn1 [Example 42, 6-(3-chlorocinnolin-7-yl)-5-[1-(2,2-dimethylpropyl)-1H-pyrazol-4-yl]pyridine-2-carbonitrile] |
